Data: patent US20200009173A1, “TRIAZOLE-CONTAINING MACROLIDES AND OPHTHALMIC USES THEREFOR” (Tetard, Inc., priority 2017, published 2020)
In brackets after ≈: the same amount, converted by molar mass. Like-named read-outs stand apart in the source and are kept apart here.

Legend:
Streptococcus pneumoniae = test: MIC, Streptococcus pneumoniae (150 strains); assay type: cell-based
Streptococcus pyogenes = test: MIC, Streptococcus pyogenes; assay type: cell-based; settings: Streptococcus pyogenes
Haemophilus influenzae = test: MIC, Haemophilus influenzae (100 strains); assay type: cell-based
Legionella pneumophila = test: microbe, parasite or virus in culture; assay type: cell-based
Mycoplasma pneumoniae = test: MIC, Mycoplasma pneumoniae (38 strains); assay type: cell-based
P. Acnes = test: MICs of solithromycin and comparator drugs against P. acnes; assay type: cell-based; settings: Cutibacterium acnes; 51 species
Text: EXAMPLE. The formulations described herein show overall higher potency against ocular pathogens than commercial standards. MICs (μg/ml) of Solithromycin and Comparator Drugs against P. Acnes (51 Species)

S. pneumoniae = test: MICs of solithromycin and comparator drugs, S. pneumoniae (30 species); assay type: cell-based
Text: (§1) EXAMPLE. The formulations described herein show overall higher potency against ocular pathogens than commercial standards.
(§2) MICs (μg/ml) of Solithromycin and Comparator Drugs against Bacterial Species

H. influenzae = test: MICs of solithromycin and comparator drugs, H. influenzae (30 species); assay type: cell-based
Text: as §1, §2

MSSA = test: MICs of solithromycin and comparator drugs, MSSA (31 species); assay type: cell-based
Text: as §1, §2

MSRA = test: MICs of solithromycin and comparator drugs, MSRA (30 species); assay type: cell-based
Text: as §1, §2

S. epidermidis = test: MICs of solithromycin and comparator drugs, S. epidermidis (30 species); assay type: cell-based
Text: as §1, §2

Corynebacterium spp. = test: MIC, Corynebacterium spp.; assay type: cell-based; settings: Corynebacterium; N = 10
Staphylococcus aureus = test: MIC, Staphylococcus aureus; assay type: cell-based; settings: N = 201
CA-MRSA = test: MIC, CA-MRSA; assay type: cell-based, Staphylococcus aureus; settings: N = 30
[1] = test system: Haemophilus parainfluenzae; test: MIC, Haemophilus parainfluenzae; assay type: cell-based; settings: N = 11
Listeria monocytogenes = test: MIC, Listeria monocytogenes; assay type: cell-based; settings: N = 10
Moraxella catarrhalis = test: MIC, Moraxella catarrhalis; assay type: cell-based; settings: N = 21
Mycobacterium avium = test: MIC, Mycobacterium avium; assay type: cell-based; settings: Mycobacterium avium; N = 30
Mycoplasma hominis = test: MIC, Mycoplasma hominis; assay type: cell-based; settings: N = 13
Neisseria gonorrhoeae = test: MIC, Neisseria gonorrhoeae; assay type: cell-based; settings: N = 34
Peptostreptococcus spp. = test: MIC, Peptostreptococcus spp.; assay type: cell-based; settings: Peptostreptococcus; N = 10
Ureaplasma urealyticum = test: MIC, Ureaplasma urealyticum; assay type: cell-based; settings: N = 10
[2] = test system: Viridans group streptococci; test: MIC, Viridans group streptococci; assay type: cell-based; settings: N = 51
TNFα = TNFα production in LPS-stimulated PMA-differentiated U937 cells (ELISA); assay type: cell-based, human; settings: concentration not given
Procedure: (§3) EXAMPLE. […] Cells. The human monocytic cell line U937 was obtained from the American Type Culture Collection (ATCC, Rockville, Md.). PBMCs from COPD patients were obtained from Brompton hospital and separated by AccuSPIN (Sigma-Aldrich). […] U937 cells were differentiated into adherent macrophage-like morphology by exposure to PMA (50 ng/ml) for 48 h in complete growth medium. Cell viability was assessed microscopically by trypan blue staining. Cell toxicity was determined by MTT assay as needed. This study was approved by the ethics committee of the Royal Brompton Hospitals, and all subjects gave written informed consent. Cytokine ELISA. TNFα and IL-8 concentrations in the supernatant of cell cultures were determined by sandwich ELISA according to the manufacturer's instructions (R&D Systems Europe, Abingdon, UK). Statistical analysis. The results were expressed as the mean±SEM. Comparisons of data in two groups were performed using the Student's t test or the Wilcoxon signed rank test. Multiple comparisons were made by one-way ANOVA with post hoc test (Dunnett's) as appropriate. The difference was considered significant at p<0.05. […] Anti-inflammatory effects of solithromycin in U937 cells.

CXCL8 = CXCL8 (IL-8) production in LPS-stimulated PMA-differentiated U937 cells (ELISA); assay type: cell-based, human; settings: concentration not given
Procedure: as §3

MMP9 = MMP9 activity in PMA-stimulated U937 cells (gelatin zymography); assay type: cell-based, human
Procedure: EXAMPLE. […] Cells. The human monocytic cell line U937 was obtained from the American Type Culture Collection (ATCC, Rockville, Md.). PBMCs from COPD patients were obtained from Brompton hospital and separated by AccuSPIN (Sigma-Aldrich). […] U937 cells were differentiated into adherent macrophage-like morphology by exposure to PMA (50 ng/ml) for 48 h in complete growth medium. Cell viability was assessed microscopically by trypan blue staining. Cell toxicity was determined by MTT assay as needed. This study was approved by the ethics committee of the Royal Brompton Hospitals, and all subjects gave written informed consent. Zymography. MMP9 enzyme activity was measured by gelatin zymography. […] After electrophoresis, gels were incubated and rinsed with Novex® zymogram renaturing buffer (Invitrogen) for 30 min at room temperature. The gels were then rinsed in Novex® zymogram developing buffer (Invitrogen) for 30 min at room temperature prior to overnight incubation in the developing buffer at 37° C. After incubation, the gels were stained using a Colloidal Blue Staining Kit (Invitrogen) to visualize the zymogen bands. Statistical analysis. The results were expressed as the mean±SEM. Comparisons of data in two groups were performed using the Student's t test or the Wilcoxon signed rank test. Multiple comparisons were made by one-way ANOVA with post hoc test (Dunnett's) as appropriate. The difference was considered significant at p<0.05.

In the case of `CC[C@H]1OC(=O)[C@H](C)[C@@H](O[C@H]2C[C@@](C)(OC)[C@@H](O)[C@H](C)O2)[C@H](C)[C@@H](O[C@@H]2O[C@H](C)C[C@H](N(C)C)[C@H]2O)[C@](C)(O)C[C@@H](C)CN(C)[C@H](C)[C@@H](O)[C@]1(C)O` [Azithromycin, azithromycin], the MIC90 (Streptococcus pneumoniae; N = 150) was greater than 16 µg/mL, the MIC90 (Streptococcus pneumoniae; Streptococcus pneumoniae, 150 strains, read-out: MIC90) was greater than 16 µg/mL and the MIC50 (Streptococcus pneumoniae; Streptococcus pneumoniae, N = 150) was greater than 16 µg/mL. The MIC50 (Streptococcus pyogenes) was greater than 16 µg/mL, the MIC90 (Streptococcus pyogenes; 100 strains) was greater than 16 µg/mL and the MIC90 (Streptococcus pyogenes; N = 407 (CEM-101), N = 100 (azithromycin)) was greater than 16 µg/mL. For the same compound, the MIC90 (Haemophilus influenzae; Haemophilus influenzae, 100 strains, read-out: MIC90) was 2 µg/mL (≈ 2.67 µM), the MIC50 (Haemophilus influenzae; Haemophilus influenzae, N = 100) was 2 µg/mL (≈ 2.67 µM) and the MIC90 (Haemophilus influenzae; N = 100) was 2 µg/mL (≈ 2.67 µM). The “MIC Range” value (Haemophilus influenzae; N = 100) was 0.25 to 4 µg/mL, the MIC50 (Legionella pneumophila; Legionella pneumophila) was 1 µg/mL (≈ 1.34 µM) and the MIC90 (Legionella pneumophila; Legionella pneumophila) was 2 µg/mL (≈ 2.67 µM). The MIC90 (Legionella pneumophila; N = 30) was 2 µg/mL (≈ 2.67 µM), the MIC90 (Mycoplasma pneumoniae; Mycoplasma, 38 strains, read-out: MIC90) was 0.5 ng/mL (≈ 0.000668 µM) and the MIC50 (Mycoplasma pneumoniae; Mycoplasma, N = 38) was 0.25 ng/mL (≈ 0.000334 µM). The MIC90 (Mycoplasma pneumoniae; N = 38) was 0.5 ng/mL (≈ 0.000668 µM), the MIC50 (P. Acnes) was 0.06 µg/mL (≈ 0.0801 µM) and the MIC90 (P. Acnes) was 4 µg/mL (≈ 5.34 µM). For the same compound, the “I (intermediate susceptibility)” value (S. pneumoniae) was 3%, the “NS (not susceptible)” value (S. pneumoniae) was 23% and the “S (susceptible)” value (S. pneumoniae) was 73%. For the same compound, the MIC50 (S. pneumoniae; Streptococcus pneumoniae) was 0.06 µg/mL (≈ 0.0801 µM), the MIC90 (S. pneumoniae; Streptococcus pneumoniae) was 8 µg/mL (≈ 10.7 µM) and the “I (intermediate susceptibility)” value (H. influenzae) was 0%. For the same compound, the “MIC Range” value (H. influenzae) was 1 to 4 µg/mL, the “NS (not susceptible)” value (H. influenzae) was 0% and the “S (susceptible)” value (H. influenzae) was 100%. For the same compound, the MIC50 (H. influenzae; Haemophilus influenzae) was 2 µg/mL (≈ 2.67 µM), the MIC90 (H. influenzae; Haemophilus influenzae) was 2 µg/mL (≈ 2.67 µM) and the “I (intermediate susceptibility)” value (MSSA) was 0%. The “NS (not susceptible)” value (MSSA) was 39%, the “S (susceptible)” value (MSSA) was 61% and the MIC50 (MSSA; Staphylococcus aureus, MSSA) was 2 µg/mL (≈ 2.67 µM). For the same compound, the MIC90 (MSSA; Staphylococcus aureus, MSSA) was greater than 32 µg/mL, the MIC50 (MSRA) was greater than 32 µg/mL and the MIC90 (MSRA) was greater than 32 µg/mL. For the same compound, the “I (intermediate susceptibility)” value (MSRA; 30 species) was 0%, the “NS (not susceptible)” value (MSRA; 30 species) was 90% and the “S (susceptible)” value (MSRA; 30 species) was 10%. The “I (intermediate susceptibility)” value (S. epidermidis) was 0%, the “NS (not susceptible)” value (S. epidermidis) was 63% and the “S (susceptible)” value (S. epidermidis) was 37%. The MIC50 (S. epidermidis; Staphylococcus epidermidis) was greater than 32 µg/mL, the MIC90 (S. epidermidis; Staphylococcus epidermidis) was greater than 32 µg/mL and the MIC50 (Corynebacterium spp.) was greater than 16 µg/mL. The MIC90 (Corynebacterium spp.) was greater than 16 µg/mL, the MIC50 (Staphylococcus aureus) was greater than 16 µg/mL and the MIC90 (Staphylococcus aureus) was greater than 16 µg/mL. The “MIC Range” value (CA-MRSA) was greater than 16 µg/mL, the MIC50 (CA-MRSA; Staphylococcus aureus, MRSA) was greater than 16 µg/mL and the MIC90 (CA-MRSA; Staphylococcus aureus, MRSA) was greater than 16 µg/mL. The MIC50 ([1]; Haemophilus parainfluenzae) was 1 µg/mL (≈ 1.34 µM), the MIC90 ([1]; Haemophilus parainfluenzae) was 2 µg/mL (≈ 2.67 µM) and the “MIC Range” value [1] was 0.5-2^ μg/mL. The MIC50 (Listeria monocytogenes; Listeria monocytogenes) was 0.5 µg/mL (≈ 0.668 µM), the MIC90 (Listeria monocytogenes; Listeria monocytogenes) was 1 µg/mL (≈ 1.34 µM) and the “MIC Range” value (Listeria monocytogenes) was 0.5-1^ μg/mL. The MIC50 (Moraxella catarrhalis; Moraxella catarrhalis) was 0.03 µg/mL (≈ 0.0401 µM), the MIC90 (Moraxella catarrhalis; Moraxella catarrhalis) was 0.06 µg/mL (≈ 0.0801 µM) and the “MIC Range” value (Moraxella catarrhalis) was 0.03 to 0.5 µg/mL. The MIC50 (Mycobacterium avium) was 16 µg/mL (≈ 21.4 µM), the MIC90 (Mycobacterium avium) was 16 µg/mL (≈ 21.4 µM) and the “MIC Range” value (Mycoplasma hominis) was 0.5-4^ μg/mL. For the same compound, the “MIC Range” value (Neisseria gonorrhoeae) was 0.06 to 2 µg/mL, the MIC50 (Neisseria gonorrhoeae; Neisseria gonorrhoeae) was 0.25 µg/mL (≈ 0.334 µM) and the MIC90 (Neisseria gonorrhoeae; Neisseria gonorrhoeae) was 0.5 µg/mL (≈ 0.668 µM). For the same compound, the MIC50 (Peptostreptococcus spp.) was 8 µg/mL (≈ 10.7 µM), the MIC90 (Peptostreptococcus spp.) was greater than 64 µg/mL and the “MIC Range” value (Ureaplasma urealyticum) was 0.5-4^ μg/mL. It also gave an MIC50 (Ureaplasma urealyticum; Ureaplasma urealyticum) of 2 µg/mL (≈ 2.67 µM), an MIC90 (Ureaplasma urealyticum; Ureaplasma urealyticum) of 4 µg/mL (≈ 5.34 µM) and an MIC50 [2] of 0.12 µg/mL (≈ 0.16 µM). The MIC90 [2] was 4 µg/mL (≈ 5.34 µM), the “MIC Range” value [2] was ≤0.008-16 ^ μg/mL and the “effect on TNFα production” value (TNFα) was “did not inhibit”. The “effect on IL-8 production” value (CXCL8) was “did not inhibit” and the “inhibitory effect on MMP9 activity, lower than solithromycin” value (MMP9) was 10 fold.
